Measured values reported in patent US20090076092A1, “METHOD FOR DISRUPTING REPRODUCTIVE PERFORMANCE OF ARTHROPODS” (priority 2006, published 2009).

Test system: beet armyworm (Spodoptera exigua)
Test: Test F: oviposition and egg hatch of treated beet armyworm adults
Format: in vivo
Details: for % of reduction: oviposition versus control; for No. neonates: total from successful egg hatch
Source text: For evaluating the reproductive performance effects on beet armyworm (Spodoptera exigua), each test unit consisted of one pair of adult (female and male) Spodoptera exigua moths. To obtain the adult moths, pupae of approximately the same age (±1 day) were sexed and placed in individual containers until adults emerged. After emergence, the test insects were placed in a meshed cage.
Sub-lethal concentrations of Compound 1 on beet armyworm were defined based on a preliminary study using rates of 12.5, 25, 50 and 100 ppm.
The caged adults were sprayed with test solutions of the designated treatments using a compressed air-propelled (moving) belt sprayer calibrated at 0.7 m/sec (to deliver a flow rate was ca. 5.5 mL/sec), at 207 kPa, using nozzle 8001E Tee Jet flat fan spray nozzle positioned 18 cm above the test units. Each treatment had 12 replicates (i.e. 12 adult females and 12 adult males were used per treatment).
One day after treatment, a treated male and female (one each) were placed in a cage made from a 300 mL clear plastic cup covered with screened cloth and allowed to copulate. A cotton wick/plug soaked with 10% sucrose solution was supplied in each cage as a diet source.
The number of eggs laid and number of eggs hatched were counted at 3, 4, 5 and 6 days after treatment (DAT), which represented the typical period in which female moths actively produce viable eggs. The pair of moths was transferred to a new cage after each evaluation. To evaluate the number of egg hatched, the copulation cages containing eggs were saved and maintained in a growth chamber at 27° C., 50% relative humidity and 16 hours of light per day.
The raw data were analyzed using Fisher's LSD tests for means separation. […] The percent of reduction was derived by dividing the number of eggs from each treatment by the number of eggs from the control, subtracting the quotient from 1, and then multiplying by 100%.

With CNC(=O)c1cc(Cl)cc(C)c1NC(=O)c1cc(Br)nn1-c1ncccc1Cl [Compound 1, 3-bromo-N-[4-chloro-2-methyl-6-[(methylamino)carbonyl]phenyl]-1-(3-chloro-2-pyridinyl)-1H-pyrazole-5-carboxamide] the “% hatched” value (12.5 ppm, 3 DAT) was 83%, the No. eggs (12.5 ppm, 3 DAT) was 782 b and the “% of reduction” value (12.5 ppm, 3 DAT) was 66%. The No. neonates (12.5 ppm, 3 DAT) was 647 b, the “% hatched” value (12.5 ppm, 4 DAT) was 82% and the No. eggs (12.5 ppm, 4 DAT) was 315 b. For the same compound, the “% of reduction” value (12.5 ppm, 4 DAT) was 66%, the No. neonates (12.5 ppm, 4 DAT) was 257 b and the “% hatched” value (12.5 ppm, 5 DAT) was 60%. For the same compound, the No. eggs (12.5 ppm, 5 DAT) was 256 b, the “% of reduction” value (12.5 ppm, 5 DAT) was 77% and the No. neonates (12.5 ppm, 5 DAT) was 154 b. The “% hatched” value (12.5 ppm, 6 DAT) was 41%, the No. eggs (12.5 ppm, 6 DAT) was 219 b and the “% of reduction” value (12.5 ppm, 6 DAT) was 73%. For the same compound, the No. neonates (12.5 ppm, 6 DAT) was 90 b, the “% hatched” value (20 ppm, 3 DAT) was 31% and the No. eggs (20 ppm, 3 DAT) was 208 b. The “% of reduction” value (20 ppm, 3 DAT) was 91%, the No. neonates (20 ppm, 3 DAT) was 65 b and the “% hatched” value (20 ppm, 4 DAT) was 0%. For the same compound, the No. eggs (20 ppm, 4 DAT) was 134 bc, the “% of reduction” value (20 ppm, 4 DAT) was 91% and the No. neonates (20 ppm, 4 DAT) was 0 b. The “% hatched” value (20 ppm, 5 DAT) was 0%, the No. eggs (20 ppm, 5 DAT) was 132 b and the “% of reduction” value (20 ppm, 5 DAT) was 89%. For the same compound, the No. neonates (20 ppm, 5 DAT) was 0 b, the “% hatched” value (20 ppm, 6 DAT) was 0% and the No. eggs (20 ppm, 6 DAT) was 109 b. For the same compound, the “% of reduction” value (20 ppm, 6 DAT) was 87%, the No. neonates (20 ppm, 6 DAT) was 0 b and the “% hatched” value (31 ppm, 3 DAT) was 0%. For the same compound, the No. eggs (31 ppm, 3 DAT) was 61 b, the “% of reduction” value (31 ppm, 3 DAT) was 97% and the No. neonates (31 ppm, 3 DAT) was 0 b. For the same compound, the “% hatched” value (31 ppm, 4 DAT) was 0%, the No. eggs (31 ppm, 4 DAT) was 29 c and the “% of reduction” value (31 ppm, 4 DAT) was 97%. The No. neonates (31 ppm, 4 DAT) was 0 b, the “% hatched” value (31 ppm, 5 DAT) was 0% and the No. eggs (31 ppm, 5 DAT) was 91 b. For the same compound, the “% of reduction” value (31 ppm, 5 DAT) was 92%, the No. neonates (31 ppm, 5 DAT) was 0 b and the “% hatched” value (31 ppm, 6 DAT) was 0%. For the same compound, the No. eggs (31 ppm, 6 DAT) was 108 b, the “% of reduction” value (31 ppm, 6 DAT) was 87% and the No. neonates (31 ppm, 6 DAT) was 0 b. For the same compound, the “number of eggs (fecundity) and number of neonates (fertility) versus control” value (all the tested rates (12.5, 20, 31 ppm), all the observation dates) was “significant reductions”.
